Where a SMILES comes first, the peptide text is derived from it. Bridges are numbered along the chain shown (N, C = ends). [ ]: non-standard residue; d: D form. The star is where a group is joined. S5 = C=CCCC[C@](C)(N)C(=O)O; Nle = CCCC[C@H](N)C(=O)O; Aib = CC(C)(N)C(=O)O; Propionyl = CCC(=O)*
Assays:
Figure 2 = test: Figure 2; set-up: AUCall: concentration or dose not given beside the values; details: for C0 / half-life / MRT: Sprague-Dawley, rat, plasma, iv; for MRT: read-out: MRTinf_obs
Procedure: Table printed on a drawing sheet, Figure 2
Footnotes: 2 mg/mL iv bolus in Sprague-Dawley rats (10 mg/kg) / * 0.6 mg/mL iv bolus in Sprague-Dawley rats (3 mg/kg)
The patent's description of the figure: FIG. 2 lists the in vivo half-lives of peptidomimetic macrocycles of the invention. Half-lives were measured in Sprague Dawley rats after one intravenous bolus injection at 0.6 mg/mL or 2 mg/mL of each unlabeled peptidomimetic macrocycle at a 3 mg/kg or 10 mg/kg dose, respectively. Three animals were used per compound and concentrations were determined by mass-spectrometric analysis of blood levels (plasma).
First reader's note: An asterisk before the peptide name marks dosing at 3 mg/kg (0.6 mg/mL) instead of 10 mg/kg (2 mg/mL).

Figure 5 = test: Figure 5
Source text: Table printed on a drawing sheet, Figure 5
The patent's description of the figure: FIG. 5 illustrates the PK profile in rat and monkey for a peptidomimetic macrocycle of the invention.
First reader's note: The first row combines the substance name (SP2) with the conditions dose, route and species in one cell.

SMILES	AUCall (Figure 2) [µg·h/mL]	Cl_obs (Figure 2) [mL/min/kg]	C0 (Figure 2) [µg/mL]	half-life (Figure 2) [h]	MRT (Figure 2) [h]	AUC all (Figure 5) [µg·h/mL]	Cmax (Figure 5) [µg/mL]	MRTinf (Figure 5) [h]	T ½ (Figure 5) [h]
CCCC[C@H](NC(=O)[C@]1(C)CCCC=CCCC[C@](C)(NC(=O)[C@H](C)NC(=O)[C@H](CC(C)C)NC(=O)[C@H](Cc2c[nH]cn2)NC(=O)[C@H](CCCNC(=N)N)NC(=O)[C@H](C)NC(=O)[C@@H](NC(=O)[C@H](CC(N)=O)NC(=O)[C@H](CCCNC(=N)N)NC(=O)CC)[C@@H](C)CC)C(=O)N[C@@H](C(C)C)C(=O)NCC(=O)N[C@@H](CC(=O)O)C(=O)N1)C(=O)NC(C)(C)C(=O)N[C@@H](CCCNC(=N)N)C(=O)N[C@@H](CO)C(=O)N[C@H](C(N)=O)[C@@H](C)CC [SP10] (Propionyl-RNIARHLA[S5]VGD[S5][Nle][Aib]RSI-NH2; staple 9-13)	35.591	3.605	51.7	21.8	3	–	–	–	–
CC[C@H](C)[C@H](NC(=O)[C@H](CO)NC(=O)[C@H](CCCNC(=N)N)NC(=O)[C@H](C)NC(=O)[C@H](C)NC(=O)[C@]1(C)CCCC=CCCC[C@](C)(NC(=O)[C@H](C)NC(=O)[C@H](CC(C)C)NC(=O)[C@H](Cc2c[nH]cn2)NC(=O)[C@H](CCCNC(=N)N)NC(=O)[C@H](C)NC(=O)[C@@H](NC(=O)[C@H](CC(N)=O)NC(=O)[C@H](CCCNC(=N)N)NC(=O)[C@@H](NC(=O)[C@@H](NC(=O)[C@H](CC(=O)O)NC(C)=O)[C@@H](C)CC)[C@@H](C)CC)[C@@H](C)CC)C(=O)N[C@@H](C(C)C)C(=O)NC(C)(C)C(=O)N[C@@H](CC(=O)O)C(=O)N1)C(N)=O [SP7] (Ac-DIIRNIARHLA[S5]V[Aib]D[S5]AARSI-NH2; staple 12-16)	402.899	0.398	158	3.9	3.1	–	–	–	–
CC[C@H](C)[C@H](NC(C)=O)C(=O)N[C@@H](Cc1c[nH]c2ccccc12)C(=O)N[C@H](C(=O)N[C@@H](C)C(=O)N[C@@H](CCC(N)=O)C(=O)N[C@@H](CCC(=O)O)C(=O)N[C@@H](CC(C)C)C(=O)N[C@@H](CCCNC(=N)N)C(=O)N[C@@]1(C)CCCC=CCCC[C@@](C)(C(=O)N[C@@H](Cc2ccccc2)C(=O)N[C@@H](CC(N)=O)C(=O)N[C@@H](C)C(=O)N[C@@H](Cc2ccc(O)cc2)C(=O)N[C@@H](Cc2ccc(O)cc2)C(=O)N[C@@H](C)C(=O)N[C@@H](CCCNC(=N)N)C(=O)N[C@@H](CCCNC(=N)N)C(N)=O)NC(=O)[C@H](CC(=O)O)NC(=O)CNC(=O)[C@H]([C@@H](C)CC)NC1=O)[C@@H](C)CC (single isomer, unassigned) [SP2 3 mg/kg IV monkey]	–	–	–	–	–	110.669	51.54	1.9	2
CCCC[C@H](NC(=O)[C@]1(C)CCCC=CCCC[C@](C)(NC(=O)[C@H](C)NC(=O)[C@H](CC(C)C)NC(=O)[C@]2(C)CCCC=CCCCCC(=O)N[C@@H]([C@@H](C)CC)C(=O)N[C@@H](C)C(=O)N[C@@H](CCCNC(=N)N)C(=O)N2)C(=O)N[C@@H](C(C)C)C(=O)NCC(=O)N[C@@H](CC(=O)O)C(=O)N1)C(=O)N[C@@H](CC(=O)O)C(=O)N[C@@H](CCCNC(=N)N)C(=O)N[C@@H](CO)C(=O)N[C@H](C(N)=O)[C@@H](C)CC [*SP12]	69.035	0.503	6.4	5.9	9.2	–	–	–	–
CC[C@H](C)[C@H](NC(C)=O)C(=O)N[C@@H](Cc1c[nH]c2ccccc12)C(=O)N[C@H](C(=O)N[C@@H](C)C(=O)N[C@@H](CCC(N)=O)C(=O)N[C@@H](CCC(=O)O)C(=O)N[C@@H](CC(C)C)C(=O)N[C@@H](CCCNC(=N)N)C(=O)N[C@@]1(C)CCCC=CCCC[C@@](C)(C(=O)N[C@@H](Cc2ccccc2)C(=O)N[C@@H](CC(N)=O)C(=O)N[C@@H](C)C(=O)N[C@@H](Cc2ccc(O)cc2)C(=O)N[C@@H](Cc2ccc(O)cc2)C(=O)N[C@@H](C)C(=O)N[C@@H](CCCNC(=N)N)C(=O)N[C@@H](CCCNC(=N)N)C(N)=O)NC(=O)[C@H](CC(=O)O)NC(=O)CNC(=O)[C@H]([C@@H](C)CC)NC1=O)[C@@H](C)CC (single isomer, unassigned) [SP2 10 mg/kg IV monkey]	–	–	–	–	–	427.932	180.01	2.2	1.9
CC[C@H](C)[C@H](NC(C)=O)C(=O)N[C@@H](Cc1c[nH]c2ccccc12)C(=O)N[C@H](C(=O)N[C@@H](C)C(=O)N[C@@H](CCC(N)=O)C(=O)N[C@@H](CCC(N)=O)C(=O)N[C@@H](CC(C)C)C(=O)N[C@@H](CCCNC(=N)N)C(=O)N[C@@]1(C)CCCC=CCCC[C@@](C)(C(=O)N[C@@H](Cc2ccccc2)C(=O)N[C@@H](CC(N)=O)C(=O)N[C@@H](C)C(=O)N[C@@H](Cc2ccc(O)cc2)C(=O)N[C@@H](Cc2ccc(O)cc2)C(=O)N[C@@H](C)C(=O)N[C@@H](CCCNC(=N)N)C(=O)N[C@@H](CCCNC(=N)N)C(N)=O)NC(=O)[C@H](CC(=O)O)NC(=O)CNC(=O)[C@H]([C@@H](C)CC)NC1=O)[C@@H](C)CC [SP3]	156.183	1.1	186	11.1	4.3	–	–	–	–
CCCC[C@H](NC(=O)[C@]1(C)CCCC=CCCC[C@](C)(NC(=O)[C@H](C)NC(=O)[C@H](CC(C)C)NC(=O)[C@H](Cc2c[nH]cn2)NC(=O)[C@H](CCCNC(=N)N)NC(=O)[C@H](C)NC(=O)[C@@H](NC(=O)[C@H](CC(N)=O)NC(=O)[C@H](CCCNC(=N)N)NC(=O)CC)[C@@H](C)CC)C(=O)N[C@@H](C(C)C)C(=O)NC(C)(C)C(=O)N[C@@H](CC(=O)O)C(=O)N1)C(=O)N[C@@H](CC(=O)O)C(=O)N[C@@H](CCCNC(=N)N)C(=O)N[C@@H](CO)C(=O)N[C@H](C(N)=O)[C@@H](C)CC [SP5] (Propionyl-RNIARHLA[S5]V[Aib]D[S5][Nle]DRSI-NH2; staple 9-13)	127.629	1.52	271	2.4	0.6	–	–	–	–
CCC(=O)N[C@@H](CCCNC(=N)N)C(=O)N[C@@H](CC(N)=O)C(=O)N[C@H](C(=O)N[C@@H](C)C(=O)N[C@@H](CCCNC(=N)N)C(=O)N[C@@H](Cc1c[nH]cn1)C(=O)N[C@@H](CC(C)C)C(=O)N[C@@H](C)C(=O)N[C@@]1(C)CCCC=CCCC[C@@](C)(C(=O)N[C@@H](Cc2ccccc2)C(=O)N[C@@H](C)C(=O)N[C@@H](CCCNC(=N)N)C(=O)N[C@@H](CO)C(=O)N[C@H](C(N)=O)[C@@H](C)CC)NC(=O)[C@H](CC(=O)O)NC(=O)C(C)(C)NC(=O)[C@H](C(C)C)NC1=O)[C@@H](C)CC [SP8] (Propionyl-RNIARHLA[S5]V[Aib]D[S5]FARSI-NH2; staple 9-13)	73.751	1.997	148	19.9	2.3	–	–	–	–
CC[C@H](C)[C@H](NC(C)=O)C(=O)N[C@@H](Cc1c[nH]c2ccccc12)C(=O)N[C@H](C(=O)N[C@@H](C)C(=O)N[C@@H](CCC(N)=O)C(=O)N[C@@H](CCC(=O)O)C(=O)N[C@@H](CC(C)C)C(=O)N[C@@H](CCCNC(=N)N)C(=O)N[C@@]1(C)CCCC=CCCC[C@@](C)(C(=O)N[C@@H](Cc2ccccc2)C(=O)N[C@@H](CC(N)=O)C(=O)N[C@@H](C)C(=O)N[C@@H](Cc2ccc(O)cc2)C(=O)N[C@@H](Cc2ccc(O)cc2)C(=O)N[C@@H](C)C(=O)N[C@@H](CCCNC(=N)N)C(=O)N[C@@H](CCCNC(=N)N)C(N)=O)NC(=O)[C@H](CC(=O)O)NC(=O)CNC(=O)[C@H]([C@@H](C)CC)NC1=O)[C@@H](C)CC (single isomer, unassigned) [SP2]	170.685	1.36	70.3	5.7	3.1	–	–	–	–
